Literature values, collected in patent publication US6826488B1, “Crystals, molecular complexes, and methods of developing lead compounds for inhibitors of bacterial IMPDH” (The University of Chicago, priority 2000, dated 2004).

Assays:
bacterial IMPDH enzymes = settings: bacterial enzymes inhibited by MPA only at very high concentrations
mammalian IMPDH enzymes = settings: mammalian relative to bacterial IMPDH enzymes

In the case of `COc1c(C)c2c(c(O)c1C/C=C(\C)CCC(=O)O)C(=O)OC2` [MPA, Mycophenolic acid], the Ki (bacterial IMPDH enzymes) is given as greater than 500 µM and the “times more sensitive to inhibition (mammalian vs bacterial IMPDH enzymes)” value (mammalian IMPDH enzymes) is given as 10-100 times.
